Source: patent US20250099530A1, “COMPOUND FOR USE IN PREVENTING AND/OR TREATING AN INFECTION CAUSED BY SARS-COV-2” (priority 2022, published 2025)
“Also recorded” adds a separate entry of the source.

What was measured:
caspase = details: cited from earlier work
HIV = details: cited from earlier work
SIV = details: SIV-infected rhesus macaques; cited from earlier work
SARS-CoV-2 [1] = assay: Antiviral activity, full treatment: Spike staining by flow cytometry and western blot of S and N proteins in infected cells; assay type: cell-based, SARS-CoV-2 strain BetaCoV/France/IDF0372/2020
Method: A) Vero E6/TMPRSS2 cells non infected or infected with the SARS-CoV-2 at MOI 0.05 were incubated with different concentrations of QVDM-OPh (10, 25, 50, 100 μM), Vx765 (25 μM) or Remdesivir (10 μM) for 1 h, before the infection. Afterwards, the cells were cultured with drug-containing medium until the end of the experiment (Full treatment) without removing the virus from the culture. After 72 h post-infection, cells were collected and stained for mortality and infection rate analysis. The % of infection is represented in each plot of analysis.
B) Results represent the % of infection detected by the Spike protein staining in the different infected and treated cells compared to the infected untreated group. Results represent mean+/−SD of 4 independent experiments with 3 independent points for each condition separately. Statistical significance was assessed applying One-way ANOVA test followed by Dunnett's post-hoc test using GraphPad Prism software (GraphPad Software Inc., USA). (****P<0.0001).
A-B) Vero E6/TMRPSS2 cells were pre-treated with QVDM-OPh peptide or Remdesivir at the indicated concentrations for 1 h, before the infection with the virus at MOI=0.05. Afterwards, the cells were cultured with drug-containing medium until the end of the experiment (Full treatment). A well with non-infected cells was performed as a negative control of the infection. At 72 h post-infection, cells were lysed by RIPA buffer and western blot analysis was performed to detect the expression of the Spike protein (S), the full length and S1 domain, and the Nucleocapsid protein (N). GAPDH was used as loading control. Results represent mean±SD, from 4 independent experiments with 3 independent points per condition.
To evaluate the toxicity of the QVDM-OPh on Vero E6 Cells and the antiviral efficacy, the percentage of mortality and the percentage of infected cells were measured by flow cytometry. Cells were cultured overnight in 24-well cell-culture petri-dish with a density of 75×10^4 cells/well. The next day, cells were pretreated or not for 1 h with the different doses of the indicated QVDM-OPh, Vx765 or Remdesivir at different concentrations. Then, the virus was subsequently added at MOI 0.05 to allow infection for 2 h in 250 μl/well. Afterwards, complete media was added to cell culture to a final volume of 500 μl/well. Drugs were added each day at same concentration to cell culture. At 72 h post-infection, the cell supernatant was collected and frozen immediately at −80° C. for viral extraction and qRT-PCR amplification. The cells were collected and a part thereof was used to flow cytometry analysis to measure the rate of infection using an intracellular staining against Spike protein (SARS-CoV-2 Spike Protein-Alexa 647, Cat no. 51-6490-82, eBioscience) and a Cytofix/cytoperm fixation permeabilization kit (Cat no. 554714, BD) according to the manufacturer's instructions. Toxicity was analysed using Viability 405/452 Fixable Dye (Cat no. 130-109-814, from Miltenyi Biotec) according to the manufacturer's instructions. […] After the staining, the cells were fixed with 2% Paraformaldehyde (FPA) and then analyzed on a Fortessa Flow Cytometer. 30 000 events were recorded for each condition in triplicate. […] The other part of the cells was lysed in RIPA lysis buffer (Invitrogen, Cat no. 10230544) containing protease (Roche) and phosphatase inhibitors (Invitrogen) for further quantification and immunoblotting analysis, or in LBP buffer for RNA purification and RT-qPCR analysis. […]

SARS-CoV-2 [2] = assay: Intracellular qRT-PCR of SARS-CoV-2 S, N and NSP6 genes in infected cells, full treatment; assay type: cell-based, SARS-CoV-2 strain BetaCoV/France/IDF0372/2020; details: 72 h post-infection, normalized to GAPDH
SARS-CoV-2 [3] = assay: Virus yield in infected cell supernatants by qRT-PCR (N and NSP6 genes); assay type: cell-based, SARS-CoV-2 strain BetaCoV/France/IDF0372/2020
SARS-CoV-2 [4] = assay: COVID-19 golden Syrian hamster model; assay type: in vivo; details: for viral replication decrease in the lungs compared to vehicle / viral load and viral replication in the lungs: 10 mg/kg IP on Day 0 (t+1 h) and Day 1, lungs at 2 dpi; for viral load and viral replication in the lungs: versus untreated groups; for clinical scores and body weight change vs Day 0: 10 mg/kg IP on Day 0 (t+1 h) and Day 1, versus infected untreated group
SARS-CoV-2 [5] = details: cited from earlier work
[6] = Severe acute respiratory syndrome coronavirus 2, 72 h, read-out: inhibition of the viral replication
[7] = full treatment, 72 h post-infection

Compound: CC(C)C(NC(=O)c1ccc2ccccc2n1)C(=O)NC(CC(=O)O)C(=O)COc1c(F)cccc1F (stereo not shown) [QVD-OPh]
- caspase inhibitory activity (caspase): broad caspase inhibitor
- HIV viral replication (HIV): inhibits also the viral replication; also recorded: same anti-viral effect
- AIDS disease progression (SIV): AIDS disease progression is prevented

Compound: COC(=O)CC(NC(=O)C(NC(=O)c1ccc2ccccc2n1)C(C)C)C(=O)COc1c(F)cccc1F (stereo not shown) [QVDM-OPh]
- control of SARS-CoV-2 infection in vitro (SARS-CoV-2 [1]; 25 μM and 50 μM): highly effective
- inhibition at 10 µM (SARS-CoV-2 [1]; [6]): ~50%
- inhibition at 25 µM (SARS-CoV-2 [1]; [6]): ~70%
- inhibition at 50 µM (SARS-CoV-2 [1]; [6]): ~99%
- reduction of viral replication compared with Remdesivir (SARS-CoV-2 [1]; [7]): comparable
- relative expression of the Spike, Nucleocapsid and NSP6 genes inside the cells (SARS-CoV-2 [2]): reduce significantly
- SARS-CoV-2 in the supernatant (N and NSP6 gene qRT-PCR) (SARS-CoV-2 [3]; [7]): significantly reduce
- inhibition of secretion/production of the virus from the cell to the media, compared with QVD-OPh (SARS-CoV-2 [3]; identical concentration, full treatment and post-entry (FIGS. 5 and 9)): more efficiently than QVD-OPh
- viral replication decrease in the lungs compared to vehicle (SARS-CoV-2 [4]): 70%
- viral load and viral replication in the lungs (SARS-CoV-2 [4]): significant reduction
- clinical scores and body weight change vs Day 0 (SARS-CoV-2 [4]): encouraging results
- toxicity (Vero E6/TMPRSS2 cells; 25 μM and 50 μM): without any toxicity
- toxicity effect on Vero E6/TMPRSS2 cells (Vero E6/TMPRSS2 cells; different concentrations (25, 50, 100 μM each day), cells infected or not at MOI 0.05, 72 h post-infection): no toxicity effect
- caspase inhibitory activity (caspase): pan-caspase inhibitor
- HIV viral replication (HIV): same anti-viral effect

Compound: CC(C)C(NC(=O)c1ccc2ccccc2n1)C(=O)NC(CCC(=O)O)C(=O)COc1c(F)cccc1F (stereo not shown) [QVE-OPh]
- viral replication decrease in the lungs compared to vehicle (SARS-CoV-2 [4]): 52%
- viral load and viral replication in the lungs (SARS-CoV-2 [4]): significant reduction
- clinical scores and body weight change vs Day 0 (SARS-CoV-2 [4]): encouraging results
- caspase inhibitory activity (caspase): no caspase inhibitory activity
- HIV viral replication (HIV): same anti-viral effect
- control of an in vitro infection caused by SARS-CoV-2 (SARS-CoV-2 [5]): highly effective
- toxicity (SARS-CoV-2 [5]; in vitro): without any toxicity
